Columns and labels:
Assay type in all cases: in vivo, human
[1] = tested on: adult subjects with schizophrenia; assay: PANSS negative subscale score, Clinical Study One; settings: Risperidone 6 mg, ITT
Experimental: There were five treatment groups in this study. […] Study medication was administered once daily. After Baseline measurements were performed, the titration phase was begun. Bifeprunox treated subjects were titrated up to 5 mg, 10 mg or 20 mg according to a standardized titration schedule (Day 1: 0.125 mg, Day 2: 0.25 mg, Day 3: 0.5 mg, Day 4: 1.0 mg, Day 5: 2.0 mg, Day 6: 5.0 mg, Day 7: 10.0 mg, Day 8: 20 mg). When the assigned dose was reached, subjects were maintained at that dose for the remainder of the six-week treatment period.
The change in the Positive and Negative Symptom Scale (PANSS) total score, from baseline to endpoint, was the primary outcome measure. Secondary efficacy measures included: PANSS positive, PANSS negative, PANSS general psychopathology (GPP) score, PANSS-derived Brief Psychiatric Rating Scale (BPRS) score, Clinical Global Impressions-Severity of Illness (CGI-S), CGI-Improvement (CGI-I) scores, and responder rates. Safety and tolerability evaluations included extrapyramidal symptoms (EPS), weight gain, lipid profile, and serum prolactin.

[2] = tested on: adult subjects with schizophrenia; assay: PANSS negative symptom subscale score, Clinical Study Two; settings: Risperidone 6 mg, LOCF, ITT
Experimental: Rating scale assessments were performed weekly, except for week 5, to measure the change from baseline to endpoint of the PANSS total score. Other assessments included: PANSS positive symptom subscale score, PANSS negative symptom subscale score, PANSS general pschopathology subscale score, BPRS total score, BPRS psychosis score, the CGI-S score, the CGI-I score, responder rates based on the PANSS total score, and the Calgary Depression Scale for Schizophrenia (CDSS). […]
Subjects who completed this study had the option to continue in the long-term. […] Risperidone-treated subjects were titrated from 2 mg to 6 mg daily over a three-day period and were subsequently maintained at 6 mg/day for the remainder of the treatment period. […] Blood samples were also obtained at Screening/Baseline, Week 3, and Week 6 for clinical laboratory assessments.

[3] = Body weight, Clinical Study Two; settings: Risperidone 6 mg
[4] = tested on: adult subjects with schizophrenia; assay: CGI Severity of Illness score, Clinical Study Three; settings: LOCF; for Change from Baseline in CGI Severity of Illness Score, Mean (SD) / Change from Baseline in CGI Severity of Illness Score, Median: 15 mg
Description: SECONDARY OBJECTIVES To assess the efficacy of bifeprunox in treating schizophrenia using the Positive Symptom sub-scale score of the PANSS, the Negative Symptom sub-scale score of the PANSS, the General Psychopathology sub-scale of the PANSS, Brief Psychiatric Rating Scale (BPRS) total score derived from the PANSS, BPRS psychosis score derived from the PANSS, the Clinical Global Impression Severity of Illness score (CGI-S), the Clinical Global Impression Improvement score (CGI-I), CGI-I responder rate, PANSS responder rate based on the PANSS total score, Calgary Depression Scale for Schizophrenia (CDSS), and Subject Satisfaction rating.
There were four treatment arms in this study, approximately 144 subjects per arm. […] After completing the Single-Blind Placebo Lead-in Period of at least three days, bifeprunox-treated subjects were titrated from 0.25 mg up to 20 mg/day or 30 mg/day according to a standardized titration scheme over a seven- or eight-day period, respectively. When the assigned dose was reached, subjects were maintained at that dose for the remainder of the six week treatment period. […] Subjects were hospitalized (if not already inpatients) after eligibility for study entry was verified, starting from the Screening Visit until at least 10 days after Baseline. Subjects could be hospitalized longer than 10 days if considered medically necessary by the Investigator. Rating scale assessments for efficacy and abnormal movement disorders were done weekly except for Week 5. […] Subject satisfaction with study medication was assessed at Week 6.

[5] = tested on: adult subjects with schizophrenia; assay: CGI Improvement score, Clinical Study Three; settings: 15 mg, LOCF
Experimental: CLINICAL STUDY THREE: Table 29 below presents frequencies for the seven categories of CGI Improvement ratings by visit using LOCF for the ITT population. Statistical differences among treatment groups regarding the mean CGI Improvement score were evaluated using a CMH test stratified by pooled center applied to the frequencies of the seven CGI Improvement categories with modified ridit scores. […] The treatment comparison of the 30 mg bifeprunox group versus placebo group was not notable (p=0.162). No notable differences were observed between the placebo group and either of the two bifeprunox dose groups at any other time point during the study (Week 1 through Week 4).

Cc1nc2n(c(=O)c1CCN1CCC(c3noc4cc(F)ccc34)CC1)CCCC2 [Risperidone, risperidone, reference compound]
Change from Baseline in PANSS Negative Subscale Score, Mean (S.D.) ([1]; Endpoint LOCF): −3.6 (4.6) | Change from Baseline in PANSS Negative Subscale Score, Median ([1]; Endpoint LOCF): −3 | Change from Baseline in PANSS Negative Subscale Score, Mean (S.D.) ([1]; Week 1, LOCF): −2.1 (3.5) | Change from Baseline in PANSS Negative Subscale Score, Median ([1]; Week 1, LOCF): −1 | Change from Baseline in PANSS Negative Subscale Score, Mean (S.D.) ([1]; Week 2, LOCF): −3.0 (4.2) | Change from Baseline in PANSS Negative Subscale Score, Median ([1]; Week 2, LOCF): −3 | Change from Baseline in PANSS Negative Subscale Score, Mean (S.D.) ([1]; Week 3, LOCF): −3.5 (4.2) | Change from Baseline in PANSS Negative Subscale Score, Median ([1]; Week 3, LOCF): −3 | Change from Baseline in PANSS Negative Subscale Score, Mean (S.D.) ([1]; Week 4, LOCF): −3.2 (4.3) | Change from Baseline in PANSS Negative Subscale Score, Median ([1]; Week 4, LOCF): −3 | Change from Baseline in PANSS Negative Symptom Subscale Score, Mean (SD) ([2]; Week 1): −1.5 (3.0) | Change from Baseline in PANSS Negative Symptom Subscale Score, Median ([2]; Week 1): −2 | Change from Baseline in PANSS Negative Symptom Subscale Score, Mean (SD) ([2]; Week 2): −2.9 (4.3) | Change from Baseline in PANSS Negative Symptom Subscale Score, Median ([2]; Week 2): −3 | Change from Baseline in PANSS Negative Symptom Subscale Score, Mean (SD) ([2]; Week 3): −3.3 (4.9) | Change from Baseline in PANSS Negative Symptom Subscale Score, Median ([2]; Week 3): −3 | Change from Baseline in PANSS Negative Symptom Subscale Score, Mean (SD) ([2]; Week 4): −3.8 (5.5) | Change from Baseline in PANSS Negative Symptom Subscale Score, Median ([2]; Week 4): −4 | Change from Baseline in PANSS Negative Symptom Subscale Score, Mean (SD) ([2]; Week 6/Endpoint): −3.8 (5.5) | Change from Baseline in PANSS Negative Symptom Subscale Score, Median ([2]; Week 6/Endpoint): −3 | Weight, Baseline Mean of subjects with Endpoint change [3]: 174.5 lbs | Weight, Baseline Mean of subjects with Week 6 change [3]: 166.6 lbs | Weight, Baseline, Max [3]: 404 lbs | Weight, Baseline, Mean (SD) [3]: 174.3 (58.5) lbs | Weight, Baseline, Median [3]: 170 lbs | Weight, Baseline, Min [3]: 82 lbs | Weight, Change from Baseline at Endpoint, Max [3]: 33 lbs | Weight, Change from Baseline at Endpoint, Mean (SD) [3]: 3.2 (7.4) lbs | Weight, Change from Baseline at Endpoint, Median [3]: 2 lbs | Weight, Change from Baseline at Endpoint, Min [3]: −20 lbs | Weight, Change from Baseline at Week 6, Max [3]: 33 lbs | Weight, Change from Baseline at Week 6, Mean (SD) [3]: 4.1 (7.6) lbs | Weight, Change from Baseline at Week 6, Median [3]: 2 lbs | Weight, Change from Baseline at Week 6, Min [3]: −12 lbs | mean weight change at Endpoint [3]: 3.2 lbs

Cc1cc2c(s1)Nc1ccccc1N=C2N1CCN(C)CC1 [Olanzapine, olanzapine, reference compound]
Change from Baseline in CGI Severity of Illness Score, Mean (SD) ([4]; Week 1): −0.40 (0.65) | Change from Baseline in CGI Severity of Illness Score, Median ([4]; Week 1): 0.0 | Change from Baseline in CGI Severity of Illness Score, Mean (SD) ([4]; Week 2): −0.71 (0.76) | Change from Baseline in CGI Severity of Illness Score, Median ([4]; Week 2): −1.0 | Change from Baseline in CGI Severity of Illness Score, Mean (SD) ([4]; Week 3): −0.85 (0.87) | Change from Baseline in CGI Severity of Illness Score, Median ([4]; Week 3): −1.0 | Change from Baseline in CGI Severity of Illness Score, Mean (SD) ([4]; Week 4): −0.92 (0.90) | Change from Baseline in CGI Severity of Illness Score, Median ([4]; Week 4): −1.0 | Change from Baseline in CGI Severity of Illness Score, Mean (SD) ([4]; Week 6/Endpoint): −1.03 (1.00) | Change from Baseline in CGI Severity of Illness Score, Median ([4]; Week 6/Endpoint): −1.0 | mean change (SD) from Baseline to Endpoint in CGI severity of illness score ([4]; olanzapine 15 mg, ITT): −1.03 (1.00) | CGI Improvement Minimally Improved, % ([5]; Week 2): (45%) | CGI Improvement Minimally Worse, % ([5]; Week 2): (6%) | CGI Improvement Much Improved, % ([5]; Week 2): (27%) | CGI Improvement Much Worse, % ([5]; Week 2): (<1%) | CGI Improvement No Change, % ([5]; Week 2): (18%) | CGI Improvement Very Much Improved, % ([5]; Week 2): (4%) | CGI Improvement Minimally Improved, % ([5]; Week 4): (29%) | CGI Improvement Minimally Worse, % ([5]; Week 4): (7%) | CGI Improvement Much Improved, % ([5]; Week 4): (36%) | CGI Improvement Much Worse, % ([5]; Week 4): (3%) | CGI Improvement No Change, % ([5]; Week 4): (17%) | CGI Improvement Very Much Improved, % ([5]; Week 4): (7%) | CGI Improvement Minimally Improved, % ([5]; Week 6/Endpoint): (29%) | CGI Improvement Minimally Worse, % ([5]; Week 6/Endpoint): (7%) | CGI Improvement Much Improved, % ([5]; Week 6/Endpoint): (34%) | CGI Improvement Much Worse, % ([5]; Week 6/Endpoint): (3%) | CGI Improvement No Change, % ([5]; Week 6/Endpoint): (14%) | CGI Improvement Very Much Improved, % ([5]; Week 6/Endpoint): (12%)

Source: US20090068290A1, “BIFEPRUNOX DOSES FOR TREATING SCHIZOPHRENIA” (priority 2006, published 2009)
